Measured values as given in the NIST ThermoML archive (doi:10.1021/je400539h).
Numbers after ± are expanded uncertainties.

Assay: xn = mol fraction of the nth substance listed
Conditions: 101 kPa, Liquid, x2 = 0

SMILES	mass density (298.15 K) [kg/m3]	speed of sound (298.15 K) [m/s]	viscosity (298.15 K) [mPa·s]	mass density (303.15 K) [kg/m3]	speed of sound (303.15 K) [m/s]	viscosity (303.15 K) [mPa·s]	mass density (308.15 K) [kg/m3]	speed of sound (308.15 K) [m/s]	viscosity (308.15 K) [mPa·s]	mass density (313.15 K) [kg/m3]	speed of sound (313.15 K) [m/s]	viscosity (313.15 K) [mPa·s]
C1COCCO1 [1,4-dioxane] + CCCCCCOC(C)=O	1028.2 ± 1	1328 ± 11	1.159 ± 0.028	1022.7 ± 1	1320 ± 11	1.087 ± 0.027	1017.4 ± 1	1312 ± 11	1.013 ± 0.025	1011.1 ± 1	1304 ± 11	0.934 ± 0.023
COc1ccccc1 [anisole] + CCCCCCOC(C)=O	993.6 ± 1	1396 ± 12	0.97 ± 0.024	989.4 ± 1	1380 ± 12	0.917 ± 0.023	984.6 ± 1	1364 ± 12	0.863 ± 0.022	980 ± 1	1348 ± 11	0.803 ± 0.021
